Assay results published in patent publication US20240116985A1, “STAPLED PEPTIDES AND METHODS THEREOF” (priority 2020, published 2024).
Read-outs that look alike come from different tables or passages of the source.

Columns and labels:
CHI Log D procedure = format: physicochemical; details: for chromatographic logD: pH 7.4, CHI Log D; for CHI Log D: pH 7.4
[1] = target: T1, full-length beta-Catenin (Uniprot ID P35222) (Homo sapiens, UniProt P35222); experiment: Fluorescence polarization IC50 (beta-catenin / 5FAM-TCF4 10-53 competition); format: binding
T1 construct: 10 nM full-length beta-Catenin (Uniprot ID P35222)
T1 sequence (P35222 1-781): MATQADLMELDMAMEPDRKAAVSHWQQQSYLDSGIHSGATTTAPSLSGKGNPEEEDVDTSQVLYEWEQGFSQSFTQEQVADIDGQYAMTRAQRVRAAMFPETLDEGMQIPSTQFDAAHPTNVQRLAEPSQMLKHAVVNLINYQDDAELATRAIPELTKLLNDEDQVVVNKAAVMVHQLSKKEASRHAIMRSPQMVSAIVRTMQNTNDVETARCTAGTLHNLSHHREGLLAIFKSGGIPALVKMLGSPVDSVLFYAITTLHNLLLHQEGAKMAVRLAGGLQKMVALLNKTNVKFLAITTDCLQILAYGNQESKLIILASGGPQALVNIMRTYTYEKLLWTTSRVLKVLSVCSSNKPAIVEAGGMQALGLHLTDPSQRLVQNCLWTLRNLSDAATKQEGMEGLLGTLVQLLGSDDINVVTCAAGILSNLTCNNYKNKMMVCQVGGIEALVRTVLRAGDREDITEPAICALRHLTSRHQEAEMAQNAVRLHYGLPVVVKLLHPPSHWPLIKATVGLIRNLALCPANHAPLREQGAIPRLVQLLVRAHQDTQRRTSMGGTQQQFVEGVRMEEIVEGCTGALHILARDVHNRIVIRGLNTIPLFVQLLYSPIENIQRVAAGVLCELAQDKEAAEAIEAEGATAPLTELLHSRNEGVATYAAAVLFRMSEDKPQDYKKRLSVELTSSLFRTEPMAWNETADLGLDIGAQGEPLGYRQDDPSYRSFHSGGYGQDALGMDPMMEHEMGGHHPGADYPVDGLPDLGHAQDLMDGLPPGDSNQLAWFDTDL

[2] = fluorescence polarization, beta-catenin, read-out: FP EC50

chromatographic logD (CHI Log D procedure)	IC50 ([1]; read-out: beta-Catenin FP IC50) [nM]	CHI Log D (CHI Log D procedure)	IC50 [1, 2] [nM]	Structure (SMILES)
2.52	8	–	–	CC(=O)N1CCC[C@]12CC=CCCCC1(CCCC=CCCCOC(=O)N3CC[C@@](C(=O)N[C@@H](Cc4ccsc4)C(=O)N[C@@H](Cc4csc5ccccc45)C(=O)N[C@@H](CCC(N)=O)C(N)=O)(C3)NC(=O)[C@H](Cc3ccccc3)NC(=O)[C@H](Cc3ccccc3)NC(=O)[C@H](C)NC(=O)[C@H](C)NC(=O)[C@H](Cc3ccccc3C(=O)O)NC(=O)[C@H](CC(=O)O)NC1=O)NC(=O)[C@H](CC(C)(C)C)NC(=O)[C@H](CC(=O)O)NC2=O (stereo partly drawn) [I-853, Ac-PL3-Asp-Npg-B5-Asp-2COOHF-Ala-Ala-Phe-Phe-PyrS2-3Thi-BztA-Gln-NH2]
–	1080	2.104	1080	CC(=O)N1CCC[C@]12CC=CCCCC1(CCCC=CCCCOC(=O)N3CC[C@@](C(=O)N[C@@H](Cc4ccsc4)C(=O)N[C@@H](Cc4csc5ccccc45)C(=O)N[C@@H](C)C(N)=O)(C3)NC(=O)[C@H](CC(N)=O)NC(=O)[C@H](Cc3ccccc3)NC(=O)[C@H](C)NC(=O)[C@H](C)NC(=O)[C@H](CN(CC(=O)O)CC(F)(F)F)NC(=O)[C@H](CC(=O)O)NC1=O)NC(=O)[C@H](CC(C)(C)C)NC(=O)[C@H](CC(=O)O)NC2=O (stereo partly drawn) [I-945, Ac-PL3-Asp-Npg-B5-Asp-TfeGA-Ala-Ala-Phe-Asn-PyrS2-3Thi-BztA-Ala-NH2]
–	1210	1.975	1210	CC(=O)N1CCC[C@]12CC=CCCCC1(CCCC=CCCCOC(=O)N3CC[C@@](C(=O)N[C@@H](Cc4ccsc4)C(=O)N[C@@H](Cc4csc5ccccc45)C(=O)N[C@@H](Cc4ccc(O)cc4)C(N)=O)(C3)NC(=O)[C@H](CC(N)=O)NC(=O)[C@H](Cc3ccccc3)NC(=O)[C@H](C)NC(=O)[C@H](C)NC(=O)[C@H](CN(CC(=O)O)CC(F)(F)F)NC(=O)[C@H](CC(=O)O)NC1=O)NC(=O)[C@H](CC(C)(C)C)NC(=O)[C@H](CC(=O)O)NC2=O (stereo partly drawn) [I-952, Ac-PL3-Asp-Npg-B5-Asp-TfeGA-Ala-Ala-Phe-Asn-PyrS2-3Thi-BztA-Tyr-NH2]
–	407	2.046	407	CC(=O)N1CCC[C@]12CC=CCCCC1(CCCC=CCCCOC(=O)N3CC[C@@](C(=O)N[C@@H](Cc4ccsc4)C(=O)N[C@@H](Cc4csc5ccccc45)C(=O)N[C@@H](CO)C(N)=O)(C3)NC(=O)[C@H](Cc3ccccc3)NC(=O)[C@H](Cc3ccccc3)NC(=O)[C@H](C)NC(=O)[C@H](C)NC(=O)[C@H](CN(CC(=O)O)CC(F)(F)F)NC(=O)[C@H](CC(=O)O)NC1=O)NC(=O)[C@H](CC(C)(C)C)NC(=O)[C@H](CC(=O)O)NC2=O (stereo partly drawn) [I-962, Ac-PL3-Asp-Npg-B5-Asp-TfeGA-Ala-Ala-Phe-Phe-PyrS2-3Thi-BztA-Ser-NH2]

The remaining lines, values behind:

Structure (SMILES)	chromatographic logD (CHI Log D procedure)	IC50 ([1]; read-out: beta-Catenin FP IC50) [nM]	CHI Log D (CHI Log D procedure)	IC50 [1, 2] [nM]
CC(=O)N1CCC[C@]12CC=CCCCC1(CCCC=CCCCOC(=O)N3CC[C@@](C(=O)N[C@@H](Cc4ccsc4)C(=O)N[C@@H](Cc4c[nH]c5cc(Cl)ccc45)C(=O)N[C@@H](Cc4c[nH]cn4)C(N)=O)(C3)NC(=O)[C@H](CC(N)=O)NC(=O)[C@H](Cc3ccccc3)NC(=O)[C@H](C)NC(=O)[C@H](C)NC(=O)[C@H](CC(=O)O)NC(=O)[C@H](CC(=O)O)NC1=O)NC(=O)[C@H](CC(C)(C)C)NC(=O)[C@H](CC(=O)O)NC2=O (stereo partly drawn) [I-798, Ac-PL3-Asp-Npg-B5-Asp-Asp-Ala-Ala-Phe-Asn-PyrS2-3Thi-6C1W-His-NH2]	2.07	106	–	–
CC(=O)N1CCC[C@]12CC=CCCCC1(CCCC=CCCCOC(=O)N3CC[C@@](C(=O)N[C@@H](Cc4ccsc4)C(=O)N[C@@H](Cc4csc5ccccc45)C(=O)N[C@@H](CCC(N)=O)C(N)=O)(C3)NC(=O)[C@H](Cc3ccccc3)NC(=O)[C@H](Cc3ccccc3)NC(=O)[C@H](C)NC(=O)[C@H](C)NC(=O)[C@H](CC(N)=O)NC(=O)[C@H](CC(=O)O)NC1=O)NC(=O)[C@H](CC(C)(C)C)NC(=O)[C@H](CC(=O)O)NC2=O (stereo partly drawn) [I-855, Ac-PL3-Asp-Npg-B5-Asp-Asn-Ala-Ala-Phe-Phe-PyrS2-3Thi-BztA-Gln-NH2]	2.54	22	–	–
CC(=O)N1CCC[C@]12CC=CCCCC1(CCCC=CCCCOC(=O)N3CC[C@@](C(=O)N[C@@H](Cc4ccsc4)C(=O)N[C@@H](Cc4csc5ccccc45)C(=O)N[C@@H](CCC(N)=O)C(=O)N[C@@H](CCCCNC(=O)CCc4cc(C(F)(F)F)cc(C(F)(F)F)c4)C(N)=O)(C3)NC(=O)[C@H](CC(N)=O)NC(=O)[C@H](Cc3ccccc3)NC(=O)[C@H](C)NC(=O)[C@H](C)NC(=O)[C@H](CC(=O)O)NC(=O)[C@H](CC(=O)O)NC1=O)NC(=O)[C@H](CC(C)(C)C)NC(=O)[C@H](CC(=O)O)NC2=O (stereo partly drawn) [I-902, Ac-PL3-Asp-Npg-B5-Asp-Asp-Ala-Ala-Phe-Asn-PyrS2-3Thi-BztA-Gln-[35CF3PhPr]Lys-NH2]	2.69	104	–	–
CC(=O)N1CCC[C@]12CC=CCCCC1(CCCC=CCCCCCC[C@@](C)(C(=O)N[C@@H](Cc3ccccc3Cl)C(=O)N[C@@H](Cc3csc4ccccc34)C(=O)N[C@@H](CCC(N)=O)C(N)=O)NC(=O)[C@H](Cc3ccccc3)NC(=O)[C@H](Cc3ccccc3)NC(=O)[C@H](C)NC(=O)[C@H](C)NC(=O)[C@H](CN(CC(=O)O)CC(F)(F)F)NC(=O)[C@H](CC(=O)O)NC1=O)NC(=O)[C@H](CC(C)(C)C)NC(=O)[C@H](CC(=O)O)NC2=O (stereo partly drawn) [I-931, Ac-PL3-Asp-Npg-B5-Asp-TfeGA-Ala-Ala-Phe-Phe-S8-2C1F-BztA-Gln-NH2]	3.36	221	–	–
CC(=O)N1CCC[C@]12CC=CCCCC1(CCCC=CCCCCCC[C@@](C)(C(=O)N[C@@H](Cc3ccccc3C(F)(F)F)C(=O)N[C@@H](Cc3csc4ccccc34)C(=O)N[C@@H](CCC(N)=O)C(N)=O)NC(=O)[C@H](CC(N)=O)NC(=O)[C@H](Cc3ccccc3)NC(=O)[C@H](C)NC(=O)[C@H](C)NC(=O)[C@H](CN(CC(=O)O)CC(F)(F)F)NC(=O)[C@H](CC(=O)O)NC1=O)NC(=O)[C@H](CC(C)(C)C)NC(=O)[C@H](CC(=O)O)NC2=O (stereo partly drawn) [I-934, Ac-PL3-Asp-Npg-B5-Asp-TfeGA-Ala-Ala-Phe-Asn-S8-2F3MeF-BztA-Gln-NH2]	2.82	69	–	–
C#CCOCCOCCOCCOCCC(=O)NCCCC[C@H](NC(=O)[C@H](CCC(N)=O)NC(=O)[C@H](Cc1csc2ccccc12)NC(=O)[C@H](Cc1ccsc1)NC(=O)[C@]12CCN(C1)C(=O)OCCCC=CCCCC1(CCCC=CC[C@]3(CCCN3C(C)=O)C(=O)N[C@@H](CC(=O)O)C(=O)N[C@@H](CC(C)(C)C)C(=O)N1)C(=O)N[C@@H](CC(=O)O)C(=O)N[C@@H](CC(=O)O)C(=O)N[C@@H](C)C(=O)N[C@@H](C)C(=O)N[C@@H](Cc1ccccc1)C(=O)N[C@@H](CC(N)=O)C(=O)N2)C(N)=O (stereo partly drawn) [I-938, Ac-PL3-Asp-Npg-B5-Asp-Asp-Ala-Ala-Phe-Asn-PyrS2-3Thi-BztA-Gln-[PropynPEG4]Lys-NH2]	2.16	9	–	–
CC(=O)N1CCC[C@]12CC=CCCCC1(CCCC=CCCCOC(=O)N3CC[C@@](C(=O)N[C@@H](Cc4ccsc4)C(=O)N[C@@H](Cc4csc5ccccc45)C(=O)N[C@@H](C)C(N)=O)(C3)NC(=O)[C@H](CC(N)=O)NC(=O)[C@H](Cc3ccccc3)NC(=O)[C@H](C)NC(=O)[C@H](C)NC(=O)[C@H](CN(CC(=O)O)CC(F)(F)F)NC(=O)[C@H](CC(=O)O)NC1=O)NC(=O)[C@H](CC(C)(C)C)NC(=O)[C@H](CC(=O)O)NC2=O (stereo partly drawn) [I-944, Ac-PL3-Asp-Npg-B5-Asp-TfeGA-Ala-Ala-Phe-Asn-PyrS2-3Thi-BztA-Ala-NH2]	–	761	1.982	761
